Assay results from patent US20220233565A1, “REDUCED NICOTINAMIDERIBOSIDES FOR TREATING/PREVENTING SKELETAL MUSCLE DISEASE” (SOCIETE DES PRODUITS NESTLE S.A., priority 2019, published 2022).
Entries after “also recorded” stand apart in the source; their conditions may differ. Counter-ions that a name gives are not always drawn.

Legend:
[1] = target: T1, adenosine kinase (AK) (Mus musculus, UniProt P55264); experiment: NRH-induced NAD+ synthesis under adenosine kinase inhibition; assay type: cell-based; design: effect of AK inhibitor on the action of NRH (NAD+ synthesis): dose or concentration left out as unconfirmed; conditions: for effect of AK inhibitor on the action of NRH (NAD+ synthesis): AML12 cells, inhibitor 1 hour prior to NRH (5-IT), NAD+ 1 hour later
T1 construct: endogenous in cells; host or cells: AML12 cells
T1 sequence (P55264 whole entry): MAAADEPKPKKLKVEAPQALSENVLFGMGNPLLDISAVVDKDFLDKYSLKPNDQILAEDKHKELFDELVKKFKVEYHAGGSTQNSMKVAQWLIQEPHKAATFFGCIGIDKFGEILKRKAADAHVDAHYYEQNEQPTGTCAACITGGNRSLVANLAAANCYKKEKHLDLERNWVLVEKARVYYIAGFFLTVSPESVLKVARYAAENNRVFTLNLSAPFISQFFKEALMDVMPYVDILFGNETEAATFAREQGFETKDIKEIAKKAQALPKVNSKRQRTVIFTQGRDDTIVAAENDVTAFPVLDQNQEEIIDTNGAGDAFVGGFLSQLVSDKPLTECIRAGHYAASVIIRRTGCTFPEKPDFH
Description: FIG. 4. […] AML12 cells were treated with an adenosine kinase inhibitor (5-IT; […]) for 1 hour prior to NRH treatment at the doses indicated. Then, 1 hour later, acidic extracts were obtained to measure NAD^+ levels. All values in the figure are expressed as mean+/−SEM of 3 independent experiments. * indicates statistical difference at p<0.05 vs. the respective vehicle treated group.

[2] = tested on: NAD+ synthesis; experiment: Intracellular NAD+ related metabolites after treatment (UHPLC-MS); assay type: cell-based; conditions: for intracellular detection of NRH and NMNH: 5 minutes after treatment
Source text: (§1) Levels of NRH and other NAD-related metabolites in biological samples were obtained by using a cold liquid-liquid extraction using a mixture of methanol:water:chloroform in 5:3:5 (v/v), from which the polar phase was recovered for hydrophilic interaction ultra-high performance liquid chromatography mass spectrometry (UHPLC-MS) analysis. The UHPLC consisted of a binary pump, a cooled autosampler, and a column oven (DIONEX Ultimate 3000 UHPLC+ Focused, Thermo Scientific), connected to a triple quadrupole spectrometer (TSQ Vantage, Thermo Scientific) equipped with a heated electrospray ionisation (H-ESI) source. Of each sample, 2 μL were injected into the analytical column (2.1 mm×150 mm, 5 μm pore size, 200 Å HILICON iHILIC®-Fusion(P)), guarded by a pre-column (2.1 mm×20 mm, 200 Å HILICON iHILIC®-Fusion(P) Guard Kit) operating at 35° C. The mobile phase (10 mM ammonium acetate at pH 9, A, and acetonitrile, B) was pumped at 0.25 mL/min flow rate over a linear gradient of decreasing organic solvent (0.5-16 min, 90-25% B), followed by re-equilibration for a total run time of 30 min. The MS operated in positive mode at 3500 V with multiple reaction monitoring (MRM). The software Xcalibur v4.1.31.9 (Thermo Scientific) was used for instrument control, data acquisition and processing. Retention time and mass detection was confirmed by authentic standards.
A path in which NRH would be converted to NMNH, then to NADH and this would be finally oxidized to NAD+.

[3] = tested on: NRK1; experiment: NAD+ levels in primary hepatocytes from control or NRK1 knockout mice; assay type: cell-based; conditions: 1 hour of treatment
Source text: (§2) The action of NRH was also NAMPT-independent, based on experiments using FK866, a NAMPT inhibitor. If NRH led to NAD+ synthesis via the formation of NMNH, this hypothetical path would require the phosphorylation of NRH into NMNH. Given the essential and rate-limiting role of NRK1 in NR phosphorylation, we wondered whether the ability of NRH to boost NAD+ levels was NRK1 dependent. To answer this question, we evaluated NRH action in primary hepatocytes from either control or NRK1 knockout (NRK1KO) mice. […] Further, they rule out the possibility that NRH-induced NAD+ […] is driven by NRH oxidation into NR.

[4] = Stability in isolated mouse plasma; assay type: in vitro ADME; conditions: for generation of NAM in plasma / level of spiked compound in plasma: isolated mouse plasma, 2 h of incubation
Source text: as §1
(§3) NR degradation to NAM has been proposed as a limitation for its pharmacological efficacy. To evaluate whether NRH was also susceptible to degradation to NAM, we spiked NRH or NR in isolated mouse plasma. […] We also tested the stability of NRH in other matrixes. […] Finally, we also certified NRH stability in water (pH=7, at room temperature) for 48 h.

[5] = Intraperitoneal injection in mice: tissue NAD+ and circulating metabolites; assay type: in vivo; conditions: for NAM levels in circulation / NAD+ levels in kidney / NAD+ levels in liver / NAD+ levels in muscle: IP 500 mg/kg; for NAD+ levels in kidney / NAD+ levels in liver / NAD+ levels in muscle: after 1 h
Source text: as §1
The above results prompted us to test whether NRH could act as an effective NAD+ precursor in vivo. For this, we first intraperitoneally (IP) injected mice with either NR or NRH (500 mg/kg). […] Importantly, NRH was detectable in circulation after IP injection.

[6] = Oral gavage in mice: hepatic NAD+ and plasma metabolites; assay type: in vivo; conditions: for administered compound in plasma: 1 h after oral administration
Description: 8 week-old C57BI/6NTac mice were orally gavaged with either saline (as vehicle), NR (500 mg/kg) or NRH (500 mg/kg). After 1 hour, liver, skeletal muscle and kidney NAD levels were evaluated. All results are expressed as mean+/−SEM of n=5 mice per group. * indicates statistical difference at p<0.05 vs. vs. saline-treated mice. # indicates statistical difference at p<0.05 vs. NR treated mice.
as §1
Oral administration of NRH led to very similar results to those observed after IP administration. […] NRH was detectable in plasma 1 h after oral administration. In contrast, NR levels were undetectable at 1 h after NR administration.

[7] = tested on: AML12 hepatocytes; experiment: Intracellular NAD+ levels in AML12 hepatocytes (dose-response and time course); assay type: cell-based
Description: Starting at levels at a concentration of 10 μM, NRH achieved similar increases in intracellular NAD+ levels to those reached with NR at 50-fold higher concentrations. NRH achieved maximal effects on NAD+ synthesis around the millimolar range, managing to increase intracellular NAD+ levels by more than 10-fold.
NRH actions were also extremely fast, as significant increases in NAD+ levels were observed within 5 minutes after NRH treatment.
Even at such relatively low dose, NRH achieved similar increases in intracellular NAD+ levels to those reached with NR at 50-fold higher concentrations. NRH achieved maximal effects on NAD+ synthesis around the millimolar range, managing to increase intracellular NAD+ levels by more than 10-fold.
NRH actions were also extremely fast (FIG. 3), as significant increases in NAD+ levels were observed within 5 minutes after NRH treatment.

[8] = tested on: C2C12 myotubes; experiment: NAD+ levels in C2C12 myotubes after NRH treatment; assay type: cell-based
Description: (§4) The ability of NRH to potently increase NAD+ was tested as well in other cell type models.

[9] = tested on: INS1-cells; experiment: NAD+ levels in INS1-cells after NRH treatment; assay type: cell-based
Description: as §4

[10] = tested on: 3T3 fibroblasts; experiment: NAD+ levels in 3T3 fibroblasts after NRH treatment; assay type: cell-based
Description: as §4

[11] = tested on: equilibrative nucleoside transporters (ENTs); experiment: NRH as extracellular NAD+ precursor under blockage of ENT-mediated transport (NBTI); assay type: cell-based; conditions: in the presence of NBTI
Source text: In order to understand the exact path by which NRH synthesizes NAD+, we initially evaluated whether NRH, could be transported into the cell by equilibrative nucleoside transporters (ENTs).

[12] = target: T2, NAMPT (Mus musculus, UniProt Q99KQ4); experiment: NRH action in presence of NAMPT inhibitor FK866; assay type: cell-based; conditions: with FK866, a NAMPT inhibitor
T2 construct: endogenous in cells
T2 sequence (Q99KQ4 whole entry): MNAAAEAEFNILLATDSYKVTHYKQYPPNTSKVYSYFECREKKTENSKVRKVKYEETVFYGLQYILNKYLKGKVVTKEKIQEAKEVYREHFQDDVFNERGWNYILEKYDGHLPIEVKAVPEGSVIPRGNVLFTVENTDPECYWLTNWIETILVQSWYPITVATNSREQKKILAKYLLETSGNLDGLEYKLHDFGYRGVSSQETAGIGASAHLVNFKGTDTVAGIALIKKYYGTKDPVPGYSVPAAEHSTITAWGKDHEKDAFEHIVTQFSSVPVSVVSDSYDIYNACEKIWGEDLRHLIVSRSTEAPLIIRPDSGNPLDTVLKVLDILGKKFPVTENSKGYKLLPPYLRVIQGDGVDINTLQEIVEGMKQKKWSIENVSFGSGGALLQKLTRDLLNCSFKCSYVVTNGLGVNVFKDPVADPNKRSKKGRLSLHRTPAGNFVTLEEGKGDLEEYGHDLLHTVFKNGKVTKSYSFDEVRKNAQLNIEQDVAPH
Source text: as §2

[13] = Stability in FBS supplemented media; assay type: in vitro ADME
Description: as §3

[14] = Stability in water; assay type: physicochemical; conditions: pH=7, room temperature
Description: as §3

[15] = Oral gavage in mice: NRH levels in tissues; assay type: in vivo; conditions: 2 hours after gavage (250 mg/kg)
Description: 8 week-old C57BI/6NTac mice were orally gavaged with either saline (as vehicle), and NRH (250 mg/kg). After 2 hours, liver, skeletal muscle and kidney NRH levels were evaluated. All results are expressed as mean+/−SEM of n=4 mice per group, as areas under the signal by LC-MS analysis, corrected by total protein amount of tissue.
as §1

[16] = tested on: NMNAT; experiment: NRH-induced NAD+ synthesis under NMNAT inhibition (gallotannin); assay type: cell-based
Source text: As a follow-up step, NMNAT enzymes could catalyze the transition from NMNH to NADH. […] Yet, part of the NRH action remained after gallotannin treatment when NRH was used at maximal doses.

Nc1ncnc2c1c(I)cn2[C@@H]1O[C@H](CO)[C@@H](O)[C@H]1O [5-IT, 5-iodotubercidin]
effect of AK inhibitor on the action of NRH (NAD+ synthesis) [1]: fully ablated | formation of NR and NMN after NRH treatment ([1]; with AK inhibitor): prevented

Nc1ncnc2nc(-c3ccc(N4CCOCC4)nc3)cc(-c3cccc(Br)c3)c12 [ABT-702]
effect of AK inhibitor on the action of NRH (NAD+ synthesis) [1]: confirmed

NC(=O)c1ccc[n+]([C@@H]2O[C@H](CO)[C@@H](O)[C@H]2O)c1 [NR, 1-b-D-ribofuranosyl-3-pyridinecarboxamide salt, reference compound]
intracellular detection of NRH and NMNH [2]: not | NAD+ levels in NRK1KO derived primary hepatocytes [3]: failed to increase NAD+ levels | generation of NAM in plasma [4]: increase in NAM | level of spiked compound in plasma [4]: decayed | NAM levels in circulation [5]: highly increased | NAD+ levels in kidney [5]: increased | NAD+ levels in liver [5]: increased | NAD+ levels in muscle [5]: increased | administered compound in plasma [6]: undetectable | circulating NAM ([6]; oral administration): large increases

NC(=O)C1=CN([C@@H]2O[C@H](CO)[C@@H](O)[C@H]2O)C=CC1 [NRH, reduced nicotinamide riboside]
ability to increase intracellular NAD+ compared with NR ([7]; AML12 hepatocytes): better than NR; also recorded: superior to that of NR | time to significant increase in NAD+ levels after treatment ([7]; AML12 hepatocytes (FIG. 3)): ≤ 5 min | increase of intracellular NAD+ levels (maximal effect) ([7]; AML12 hepatocytes, around the millimolar range): more than 10 fold | concentration at which NAD+ levels were significantly increased ([7]; AML12 hepatocytes, dose-response (FIG. 2)): 10 µM | fold higher NR concentration needed for similar increase in intracellular NAD+ ([7]; NRH at 10 μM versus NR): 50 fold | NAD+ levels [8]: highly elevated | NAD+ levels [9]: highly elevated | NAD+ levels [10]: highly elevated | intracellular detection of NRH and NMNH [2]: could be detected | intracellular NR and NMN ([2]; after treatment, compared with NR): greater than that triggered by NR itself | capacity as extracellular NAD+ precursor under ENT blockage [11]: largely lost its capacity | dependence of action on NAMPT [12]: NAMPT-independent | NAD+ levels in NRK1KO derived primary hepatocytes [3]: not affected by NRK1 deficiency | generation of NMNH, NADH and NAD+ from NRH upon inhibition of AK ([1]; metabolomic analyses): fully blunted | NR production in plasma ([4]; incubation in isolated plasma): did not lead to NR production | generation of NAM in plasma [4]: not generated; also recorded: did not significantly alter NAM levels | level of spiked compound in plasma [4]: remained stable | degradation to NAM in FBS supplemented media [13]: did not degrade to NAM | time for which stability in water was certified [14]: 48 h | NAM levels in circulation [5]: only a very mild increase | NAD+ levels in kidney [5]: increased | NAD+ levels in liver [5]: increased | NAD+ levels in muscle [5]: increased | NRH in circulation ([5]; after IP injection): detectable | NR in circulation ([5]; after IP injection, compared with NR injection): much higher levels than those detected after NR injection itself | administered compound in plasma [6]: detectable | NRH concentration in plasma ([6]; after oral gavage): 11.16 ± 1.74 µM | effect on hepatic NAD+ levels compared with NR ([6]; oral administration): more potent effect | NRH in kidney [15]: found intact, in high levels | NRH in liver [15]: found intact, in high levels | NRH in muscle [15]: found intact, in high levels

O=C(OC[C@H]1O[C@@H](OC(=O)c2cc(O)c(O)c(OC(=O)c3cc(O)c(O)c(O)c3)c2)[C@H](OC(=O)c2cc(O)c(O)c(OC(=O)c3cc(O)c(O)c(O)c3)c2)[C@@H](OC(=O)c2cc(O)c(O)c(OC(=O)c3cc(O)c(O)c(O)c3)c2)[C@@H]1OC(=O)c1cc(O)c(O)c(OC(=O)c2cc(O)c(O)c(O)c2)c1)c1cc(O)c(O)c(OC(=O)c2cc(O)c(O)c(O)c2)c1 [gallotannin]
effect of NMNAT inhibitor on NAD+ synthesis after NRH treatment ([16]; NRH at maximal doses (0.5 mM)): largely compromised | effect of NMNAT inhibitor on NRH action ([16]; NRH at submaximal doses): totally blocked
